# Measured values: PMC8343220, “The selectivity of α‐adrenoceptor agonists for the human α1A, α1B, and α1D‐adrenoceptors” (Pharmacology Research & Perspectives, 2021)
# Marks after values point to notes of the source that are not given here.
# What was measured:
# [1] = target: T1, human α1A‐adrenoceptor (Homo sapiens, UniProt P35348); experiment: ^3H‐prazosin whole‐cell radioligand binding, CHO‐α1A cells
# T1 construct: expressed in transfected cells; host or cells: CHO-K1
# T1 sequence (P35348 1-466): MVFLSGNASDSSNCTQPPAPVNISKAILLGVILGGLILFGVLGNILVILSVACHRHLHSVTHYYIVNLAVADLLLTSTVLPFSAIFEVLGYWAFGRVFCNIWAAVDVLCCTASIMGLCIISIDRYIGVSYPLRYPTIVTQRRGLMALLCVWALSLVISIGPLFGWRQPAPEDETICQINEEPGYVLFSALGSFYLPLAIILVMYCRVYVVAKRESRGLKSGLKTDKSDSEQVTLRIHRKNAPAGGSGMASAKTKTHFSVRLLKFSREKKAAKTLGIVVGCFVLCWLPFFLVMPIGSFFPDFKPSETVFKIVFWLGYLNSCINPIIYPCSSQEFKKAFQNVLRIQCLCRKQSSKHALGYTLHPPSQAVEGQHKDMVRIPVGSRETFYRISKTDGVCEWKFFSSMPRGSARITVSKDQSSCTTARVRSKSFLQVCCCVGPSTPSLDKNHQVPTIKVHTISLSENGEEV
# [2] = target: T1, human α1A‐adrenoceptor; experiment: ^3H‐cAMP accumulation, CHO‐α1A cells; type: cell-based; details: CHO‐α1A cells; for cAMP accumulation % forskolin: % of 10 µM forskolin response
# [3] = target: T1, human α1A‐adrenoceptor; experiment: Intracellular free calcium mobilization, CHO‐α1A cells; type: cell-based
# [4] = tested on: parental CHO cell line without any transfected receptors; experiment: Forskolin‐stimulated cAMP accumulation, parent CHO cells without transfected receptors; type: cell-based, Chinese hamster; details: CHO cells without transfected receptors; in presence of forskolin
# [5] = tested on: parental CHO cell line without any transfected receptors; experiment: Intracellular calcium mobilization, parent CHO cells without transfected receptors; type: cell-based, Chinese hamster; details: Cricetulus griseus; CHO cells without transfected receptors; response at maximum concentration used (c2), as % of ionomycin (10μM) response; mean ± s.e.m.; read-out: Intracellular calcium release % ionomycin
# [6] = target: T2, human α1D‐adrenoceptor (full length) (Homo sapiens, UniProt P25100); experiment: ^3H‐cAMP accumulation in the presence of 10 μM forskolin, CHO‐α1D cells; type: cell-based; details: CHO‐α1D cells; for cAMP (in presence of forskolin) Log EC50: log values given negative
# T2 construct: human α1D‐adrenoceptor (full length) were used; expressed in transfected cells; host or cells: CHO-K1
# T2 sequence (P25100 1-572): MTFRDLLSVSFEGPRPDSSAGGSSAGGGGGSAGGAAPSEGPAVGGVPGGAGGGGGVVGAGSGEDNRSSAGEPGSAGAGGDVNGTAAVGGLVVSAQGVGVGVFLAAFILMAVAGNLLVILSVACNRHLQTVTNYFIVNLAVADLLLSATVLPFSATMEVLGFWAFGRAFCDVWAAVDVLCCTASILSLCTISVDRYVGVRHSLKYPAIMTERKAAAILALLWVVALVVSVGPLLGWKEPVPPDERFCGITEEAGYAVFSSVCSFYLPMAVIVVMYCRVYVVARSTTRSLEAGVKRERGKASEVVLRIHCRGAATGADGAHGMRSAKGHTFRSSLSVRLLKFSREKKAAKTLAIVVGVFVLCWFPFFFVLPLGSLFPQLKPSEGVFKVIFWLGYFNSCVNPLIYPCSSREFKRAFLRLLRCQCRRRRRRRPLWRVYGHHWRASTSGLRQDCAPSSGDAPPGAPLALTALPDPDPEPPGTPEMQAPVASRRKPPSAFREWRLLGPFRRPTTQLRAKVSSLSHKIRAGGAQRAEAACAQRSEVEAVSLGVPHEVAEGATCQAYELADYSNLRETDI
# [7] = target: T2, human α1D‐adrenoceptor (full length); experiment: Intracellular free calcium mobilization, CHO‐α1D cells; type: cell-based
# [8] = target: T1, human α1A‐adrenoceptor; experiment: ERK1/2‐phosphorylation (Surefire Alphascreen), CHO‐α1A cells; type: cell-based
# [9] = target: T1, human α1A‐adrenoceptor; experiment: ^3H‐cAMP accumulation in the presence of 10 μM forskolin, CHO‐α1A cells; type: cell-based; details: CHO‐α1A cells
# [10] = target: T2, human α1D‐adrenoceptor (full length); experiment: ^3H‐cAMP accumulation, CHO‐α1D cells; type: cell-based; details: cAMP accumulation without forskolin
# [11] = target: T2, human α1D‐adrenoceptor (full length); experiment: ^3H‐prazosin whole‐cell radioligand binding, CHO‐α1D cells; details: for Kd: CHO‐α1D cells
# [12] = tested on: parental CHO cell line without any transfected receptors; experiment: ERK1/2‐phosphorylation, parent CHO cells without transfected receptors; type: cell-based, Chinese hamster; details: Cricetulus griseus, CHO; read-out: ERK1/2-phosphorylation % PDBu at 100μM
# [13] = target: T2, human α1D‐adrenoceptor (full length); experiment: ERK1/2‐phosphorylation (Surefire Alphascreen), CHO‐α1D cells; type: cell-based
# [14] = target: T3, human α1B‐adrenoceptor (Homo sapiens, UniProt P35368); experiment: Intracellular free calcium mobilization, CHO‐α1B cells; type: cell-based
# T3 construct: expressed in transfected cells; host or cells: CHO-K1
# T3 sequence (P35368 1-520): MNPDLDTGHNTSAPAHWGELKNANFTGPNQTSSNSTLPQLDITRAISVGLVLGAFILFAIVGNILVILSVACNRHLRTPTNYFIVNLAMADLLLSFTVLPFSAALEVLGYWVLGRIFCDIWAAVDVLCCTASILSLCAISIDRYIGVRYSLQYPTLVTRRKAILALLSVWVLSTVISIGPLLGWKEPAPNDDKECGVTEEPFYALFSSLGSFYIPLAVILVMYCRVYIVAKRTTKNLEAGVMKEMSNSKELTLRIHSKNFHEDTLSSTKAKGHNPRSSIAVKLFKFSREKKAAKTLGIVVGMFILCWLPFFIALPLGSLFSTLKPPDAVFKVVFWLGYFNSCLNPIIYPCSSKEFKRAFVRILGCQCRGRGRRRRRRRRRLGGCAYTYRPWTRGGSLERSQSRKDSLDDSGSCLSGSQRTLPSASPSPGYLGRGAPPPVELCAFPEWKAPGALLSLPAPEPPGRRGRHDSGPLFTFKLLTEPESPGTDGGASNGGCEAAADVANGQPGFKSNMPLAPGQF
# [15] = target: T3, human α1B‐adrenoceptor; experiment: ^3H‐cAMP accumulation in the presence of 10 μM forskolin, CHO‐α1B cells; type: cell-based; details: CHO‐α1B cells
# [16] = target: T3, human α1B‐adrenoceptor; experiment: ERK1/2‐phosphorylation (Surefire Alphascreen), CHO‐α1B cells; type: cell-based
# [17] = target: T3, human α1B‐adrenoceptor; experiment: ^3H‐cAMP accumulation, CHO‐α1B cells; type: cell-based; details: CHO‐α1B cells; response at 100 µM ligand (no EC50 given)
# [18] = target: T3, human α1B‐adrenoceptor; experiment: ^3H‐prazosin whole‐cell radioligand binding, CHO‐α1B cells
# [19] = fold increase of the forskolin response
structure (smiles),measurement,setting,value
N=C(N)N/N=C/c1c(Cl)cccc1Cl [Guanabenz],Kd,"[1]; Log KD α1A, ^3H‐prazosin whole cell binding, CHO‐α1A cells, given as log KD (negative), mean ± SEM",331 nM
same,EC50,"[2]; 5 h, read-out: cAMP accumulation Log EC50 (converted)",1820 nM
same,cAMP accumulation % forskolin,[2],2.1 ± 0.3%
same,Intracellular calcium release % ionomycin,[3],17.8 ± 3.2%
same,EC50,"[3]; CHO‐α1A cells, given as log EC50 (negative), read-out: Intracellular calcium release Log EC50 (converted)",110 nM
same,cAMP accumulation (in presence of forskolin) Log EC50,[4],No response
same,Emax,[5],23.5 ± 7.4%
same,cAMP (in presence of forskolin) Log EC50,[6],No response
same,Intracellular calcium release % Ionomycin at 100 µM,[7],20.2 ± 5.1%
same,ERK1/2‐phosphorylation % PDBu,[8],68.4 ± 8.6%
same,EC50,"[8]; CHO‐α1A cells, 2–4 min, ^a bi‐phasic: initial stimulatory part, ^b also active in parent CHO cells, read-out: ERK1/2‐phosphorylation Log EC50 (converted)",204 nM
same,EC50,"[9]; 10 μM forskolin, read-out: cAMP accumulation (in presence of forskolin) Log EC50 (converted)",145 nM
same,cAMP Log EC50,[10],No response
same,Kd,"[11]; 3H‐prazosin binding Log KD, whole‐cell binding (from Table 1), log values given negative",955 nM
same,Kd,"[11]; Log KD α1D, ^3H‐prazosin whole cell binding, given as log KD (negative), mean ± SEM, 'early plateau' = specific binding not fully inhibited",955 nM
same,Emax at 100 µM,[12],8.5 ± 3.1%
same,ERK1/2‐phosphorylation % PDBu at 100 µM,[13],20.8 ± 6.6%
CC(N)C(O)c1ccc(O)c(O)c1 (stereo not drawn) [α‐Methylnorepinephrine],Intracellular calcium release % ionomycin,[14],69.1 ± 2.6%
same,Intracellular calcium release Log EC50,[14],−8.10 ± 0.11
same,Log efficacy ratio KD /EC50,[14],>5.10
same,Affinity selectivity ratio α1A vs α1B,[1],>20.9 fold
same,"Log KD α1A, ^3H‐prazosin whole cell binding",[1],−4.32 ± 0.04
same,cAMP accumulation Log EC50,[2]; 5 h,−5.09 ± 0.06
same,cAMP accumulation % forskolin,[2],166.8 ± 7.4%
same,Intracellular calcium release % ionomycin,[3],65.2 ± 2.6%
same,Intracellular calcium release Log EC50,[3],−7.69 ± 0.07
same,Log efficacy ratio KD /EC50,[3],3.37
same,cAMP (in presence of forskolin) Fold increase,[6]; [19],1.23 ± 0.06
same,cAMP (in presence of forskolin) Log EC50,[6],−6.05 ± 0.12
same,cAMP accumulation (in presence of forskolin) Fold increase,[15]; [19],3.09 ± 0.21 fold
same,cAMP accumulation (in presence of forskolin) Log EC50,[15]; in presence of forskolin,−5.56 ± 0.05
same,Intracellular calcium release % ionomycin,[7],29.9 ± 3.6%
same,Intracellular calcium release Log EC50,[7],−7.02 ± 0.10
same,Log efficacy ratio KD /EC50,[7],2.18
same,ERK1/2‐phosphorylation % PDBu,[16],90.6 ± 4.4%
same,ERK1/2‐phosphorylation Log EC50,[16],−6.75 ± 0.13
same,ERK1/2‐phosphorylation % PDBu,[8],87.5 ± 6.3%
same,ERK1/2‐phosphorylation Log EC50,[8],−6.86 ± 0.12 ^a
same,cAMP accumulation (in presence of forskolin) Log EC50,[9]; 10 μM forskolin,−5.74 ± 0.10
same,cAMP accumulation (in presence of forskolin) Fold increase,[9]; [19],2.49 ± 0.05 fold
same,cAMP Log EC50,[10],No response
same,cAMP accumulation % forskolin at 100 µM,[17],129.7 ± 20.5%
same,"Log IC50 α1B, ^3H‐prazosin whole cell binding",[18],IC50>−3
same,3H‐prazosin binding Log KD,[11],−4.84
same,Affinity selectivity ratio α1A vs α1D,[11],3.3 fold
same,Affinity selectivity ratio α1B vs α1D,[11],>69.2 fold
same,"Log KD α1D, ^3H‐prazosin whole cell binding",[11],−4.84 ± 0.14^early plateau
same,ERK1/2‐phosphorylation % PDBu,[13],27.7 ± 4.9%
same,ERK1/2‐phosphorylation Log EC50,[13],−5.74 ± 0.11
